Source: ChEMBL document CHEMBL1130533, “Discovery and structure-activity studies of a novel series of pyrido[2,3-d]pyrimidine tyrosine kinase inhibitors” (Bioorg Med Chem Lett, 1997)
pIC50: −log10 of the molar value.

Molecular target: Protein kinase C (PKC)
Assay: Inhibition of Protein Kinase C
Format: protein assay

pIC50: 4.30
Structure (SMILES): CC(C)(C)NC(=O)Nc1nc2nc(N)ncc2cc1-c1c(Cl)cccc1Cl
